# Experimental data from patent US9562031B1, “Phenethyldihydrobenzodioxolones and methods of use” (Sequoia Sciences, Inc., priority 2015, dated 2017).
# pIC50: −log10 of the molar value. Read-outs that look alike come from different tables or passages of the source.
# How the values were obtained:
# [1] = tested on: LOX-IMVI cells; experiment: antiproliferation assay, LOX-IMVI; assay type: cell-based; conditions: Homo sapiens
# Method: (§1) For the antiproliferation assay, NCI-H460 (large cell lung carcinoma) or M14 (amelanotic melanoma) cells were grown in RPMI-1640 with 10% FBS supplemented with L-glutamine and HEPES. Cells were seeded into 96-well plates at 5×10^2 to 5×10^4 cells/well and allowed to adhere overnight; the medium was then removed. A stock solution of test compound in DMSO was diluted in medium to generate a series of working solutions. Aliquots (100 μl) of the working solutions were then added to the appropriate test wells to expose cells to the final concentrations of compound in a total volume of 100 μl. Seven different concentrations were tested, with 2-5 wells per concentration. Camptothecin was used as a positive control; wells containing vehicle without compound were used as negative controls. Plates were kept for 72 h in a 37° C., 5% CO2 incubator. After incubation, viable cells were detected with the CELLTITER 96 AQueous Non-Radioactive Cell Proliferation Assay (Promega), and IC50 values were determined using GraphPad Prism 5 software.
# (§2) Antiproliferation of several of the active compounds was tested against additional cell lines.
# [2] = tested on: NCI/ADR-RES cells; experiment: antiproliferation assay, NCI/ADR-RES; assay type: cell-based; conditions: Homo sapiens
# Method: as §1, §2
# (§3) Compound 4 was tested for antiproliferation activity against several paclitaxel-resistant human cancer cell lines.
# [3] = tested on: MOLT-4 cells; experiment: antiproliferation assay, MOLT-4; assay type: cell-based; conditions: Homo sapiens
# Method: as §1, §2
# [4] = tested on: MES-SA/Dx5 cells; experiment: antiproliferation assay, MES-SA/Dx5; assay type: cell-based; conditions: Homo sapiens
# Method: as §1, §2, §3
# [5] = tested on: NCI-H187 cells; experiment: antiproliferation assay, NCI-H187; assay type: cell-based; conditions: Homo sapiens
# Method: as §1, §2
# [6] = tested on: OVCAR-3 cells; experiment: antiproliferation assay, OVCAR-3; assay type: cell-based; conditions: Homo sapiens
# Method: as §1, §2
# [7] = tested on: M14 (amelanotic melanoma) cells; experiment: antiproliferation assay (72 h, CELLTITER 96), M14; assay type: cell-based, human
# Method in brief: (§4)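 Human M14 melanoma and NCI-H460 lung carcinoma cells in RPMI-1640/10% FBS, seeded at 5×10^2–5×10^4 cells/well and adhered overnight, then exposed to seven compound concentrations for 72 h at 37 °C. Viable cells read by CellTiter 96 AQueous (MTS); IC50 = concentration giving 50% of maximal growth inhibition.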
# [8] = tested on: NCI-H460 (large cell lung carcinoma) cells; experiment: antiproliferation assay (72 h, CELLTITER 96), NCI-H460; assay type: cell-based, human
# Method in brief: as §4
# [9] = tested on: K-562 cells; experiment: antiproliferation assay, K-562; assay type: cell-based; conditions: Homo sapiens, K562
# Method: as §1, §2
# [10] = tested on: SK-Mel-2 cells; experiment: antiproliferation assay, SK-Mel-2; assay type: cell-based; conditions: Homo sapiens
# Method: as §1, §2
# [11] = tested on: OVCAR-4 cells; experiment: antiproliferation assay, OVCAR-4; assay type: cell-based; conditions: Homo sapiens
# Method: as §1, §2
# [12] = tested on: HCT-15 cells; experiment: antiproliferation assay, paclitaxel-resistant HCT-15; assay type: cell-based; conditions: Homo sapiens
# Method: as §1, §3
# [13] = tested on: EKVX cells; experiment: antiproliferation assay, paclitaxel-resistant EKVX; assay type: cell-based; conditions: Homo sapiens
# Method: as §1, §3
# [14] = tested on: TK-10 cells; experiment: antiproliferation assay, paclitaxel-resistant TK-10; assay type: cell-based; conditions: Homo sapiens
# Method: as §1, §3
# [15] = tested on: DLD-1 cells; experiment: antiproliferation assay, paclitaxel-resistant DLD-1; assay type: cell-based; conditions: Homo sapiens
# Method: as §1, §3
# [16] = tested on: ACHN cells; experiment: antiproliferation assay, paclitaxel-resistant ACHN; assay type: cell-based; conditions: Homo sapiens
# Method: as §1, §3
# [17] = tested on: UO-31 cells; experiment: antiproliferation assay, paclitaxel-resistant UO-31; assay type: cell-based; conditions: Homo sapiens
# Method: as §1, §3
# [18] = Homo sapiens, NCI-H460, Table 3, read-out: NCI-H460 IC50
Compound,pIC50 [1],pIC50 [2],pIC50 [3],"pIC50 ([4]; MES-SA/Dx5, MES-SA/Dx5)",pIC50 [5],pIC50 [6],"pIC50 ([7]; Homo sapiens, Table 3)","pIC50 [8, 18]",pIC50 [9],also measured
"C=CC[C@H]1C[C@]2([C@@H](C)Cc3ccc(OC)cc3F)OCOC2=CC1=O (relative stereo) [Compound 2, 6-allyl-7a-(1-(2-fluoro-4-methoxyphenyl)propan-2-yl)-7,7a-dihydrobenzo[d][1,3]dioxol-5(6H)-one]",7.25,7.35,6.96,7.28,7.04,7.22,7.96,7.06,7.12,"pIC50 ([8]; Homo sapiens, NCI-H460, as quoted in the pharmacokinetics text, read-out: IC50 against NCI-H460 human lung cancer cells): 7.05"
"C=CC[C@H]1C[C@]2([C@H](C)Cc3cc(F)c(OC)cc3F)OCOC2=CC1=O (relative stereo) [Compound 6, 6-allyl-7a-(1-(2,5-difluoro-4-methoxyphenyl)propan-2-yl)-7,7a-dihydrobenzo[d][1,3]dioxol-5(6H)-one]",7.74,7.89,7.09,7.85,7.66,7.42,8.00,7.46,7.55,
"C=CC[C@H]1C[C@]2([C@@H](C)Cc3ccc(OC)c(C(N)=O)c3)OCOC2=CC1=O [Compound 29, 5-((S)-2-((3aR,5S)-5-allyl-6-oxo-3a,4,5,6-tetrahydrobenzo[d][1,3]dioxol-3a-yl)propyl)-2-methoxybenzamide]",7.59,7.36,7.08,7.51,,7.24,,,7.60,"pIC50 [10]: 8.04; pIC50 ([7]; Homo sapiens, Table 4): 7.92; pIC50 ([8]; Homo sapiens, NCI-H460, Table 4, read-out: NCI-H460 IC50): 7.18"
"CCC[C@H]1C[C@]2([C@H](C)Cc3cc(F)c(OC)cc3F)OCOC2=CC1=O [Compound 61, (6S,7aR)-7a-((R)-1-(2,5-difluoro-4-methoxyphenyl)propan-2-yl)-6-propyl-7,7a-dihydrobenzo[d][1,3]dioxol-5(6H)-one]",7.28,7.20,6.92,7.08,,,,,,"pIC50 ([7]; Homo sapiens, Table 7): 7.77; pIC50 [11]: 7.43; pIC50 ([8]; Homo sapiens, NCI-H460, Table 7, read-out: NCI-H460 IC50): 6.85"
"CC(=O)O[C@H]1C(=O)[C@@]2(C)[C@H]([C@H](OC(=O)c3ccccc3)[C@]3(O)C[C@H](OC(=O)[C@H](O)[C@@H](NC(=O)c4ccccc4)c4ccccc4)C(C)=C1C3(C)C)[C@]1(OC(C)=O)CO[C@@H]1C[C@@H]2O [paclitaxel, reference compound]",,,,,,,,,,"pIC50 [12]: 6.78; pIC50 [13]: 6.82; pIC50 ([2]; paclitaxel-resistant NCI/ADR-RES): 5.02; pIC50 ([4]; MES-SA/Dx5, paclitaxel-resistant MES-SA/Dx5): 5.30; pIC50 [14]: 7.10; pIC50 [15]: 7.05; pIC50 [16]: 7.05; pIC50 [17]: 6.62"
"(6S,7aR)-6-allyl-7a-((S)-1-(2-fluoro-4-methoxy-5-morpholinophenyl)propan-2-yl)-7,7a-dihydrobenzo[d][1,3]dioxol-5(6H)-one [Compound 98]",,,,,,,,,,"pIC50 ([7]; Table 4): < 4.70; pIC50 ([8]; Table 4, read-out: NCI-H460 IC50): < 4.70"
